Test results as given in patent US6441195B1, “Substituted sulphonylamino(thio) carbonyl compounds” (Bayer Aktiengesellschaft, priority 1995, dated 2002).

What was measured:
Format in all cases: in vivo
Gallium = assay: Post-emergence test/greenhouse, Gallium; settings: greenhouse, after three weeks
Protocol: (§1) Solvent: 5 parts by weight of acetone
(§2) Emulsifier: 1 part by weight of alkylaryl polyglycol ether
(§3) To produce a suitable preparation of active compound, 1 part by weight of active compound is mixed with the stated amount of solvent, the stated amount of emulsifier is added and the concentrate is diluted with water to the desired concentration.
(§4) Test plants which have a height of 5-15 cm are sprayed with the preparation of the active compound in such a way as to apply the particular amounts of active compound desired per unit area. The concentration of the spray liquor is chosen so that the particular amounts of active compound desired are applied in 2000 l of water/ha.
(§5) After three weeks, the degree of damage to the plants is rated in % damage in comparison to the development of the untreated control.
(§6) 0%=no action (like untreated control)

Poa = assay: Pre-emergence test/Greenhouse, Poa; settings: after three weeks
Procedure, shortened: (§7)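 Pre-emergence soil drench ~24 h after sowing; compound in solvent/emulsifier diluted with water, constant water per area, dose defined by rate per unit area. Read-out at 3 wk: % damage vs untreated control, 0% = no action.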

Matricaria [1] = assay: Post-emergence test/greenhouse, Matricaria; settings: greenhouse, after three weeks
Protocol: as §1, §2, §3, §4, §5, §6

Ambrosia = assay: Pre-emergence test/Greenhouse, Ambrosia; settings: after three weeks
Procedure, shortened: as §7

Matricaria [2] = assay: Pre-emergence test/Greenhouse, Matricaria; settings: after three weeks
Procedure, shortened: as §7

Stellaria = assay: Post-emergence test/greenhouse, Stellaria; settings: greenhouse, after three weeks
Protocol: as §1, §2, §3, §4, §5, §6

weeds [3] = assay: Pre-emergence test (greenhouse), activity against weeds; settings: in words
Procedure, shortened: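 Three weeks after treatment, % damage relative to untreated plants is scored, 0% meaning no effect. Seeds in normal soil received, roughly one day post-sowing, an aqueous dilution of an acetone/emulsifier concentrate, with the rate per unit area, not concentration, being the relevant dose.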

Sorghum [4] = assay: Post-emergence test/greenhouse, Sorghum; settings: greenhouse, after three weeks
Protocol: as §1, §2, §3, §4, §5, §6

Lolium [5] = assay: Pre-emergence test/Greenhouse, Lolium; settings: after three weeks
Procedure, shortened: as §7

Sorghum [6] = assay: Pre-emergence test/Greenhouse, Sorghum; settings: after three weeks
Procedure, shortened: as §7

Maize [7] = assay: Post-emergence test/greenhouse, Maize; settings: greenhouse, after three weeks
Protocol: as §1, §2, §3, §4, §5, §6

Digitaria = assay: Post-emergence test/greenhouse, Digitaria; settings: greenhouse, after three weeks
Protocol: as §1, §2, §3, §4, §5, §6

Maize [8] = assay: Pre-emergence test/Greenhouse, Maize; settings: in vivo
Procedure, shortened: as §7

Lolium [9] = assay: Post-emergence test/greenhouse, Lolium; settings: greenhouse, after three weeks
Protocol: as §1, §2, §3, §4, §5, §6

weeds [10] = assay: Post-emergence test (greenhouse), activity against weeds; settings: in words
Protocol: as §1, §2, §3, §4, §5, §6

Amaranthus = assay: Post-emergence test/greenhouse, Amaranthus; settings: greenhouse, after three weeks
Protocol: as §1, §2, §3, §4, §5, §6

Echinochloa = assay: Post-emergence test/greenhouse, Echinochloa; settings: greenhouse, after three weeks
Protocol: as §1, §2, §3, §4, §5, §6

Solanum = assay: Pre-emergence test/Greenhouse, Solanum; settings: after three weeks
Procedure, shortened: as §7

Soya beans = assay: Pre-emergence test/Greenhouse, Soya beans; settings: in vivo
Procedure, shortened: as §7

Compound	degree of damage, Gallium (Gallium; 60 g of ai./ha) [%]	degree of damage, Matricaria (Matricaria [1]; 60 g of ai./ha) [%]	degree of damage, Stellaria (Stellaria; 60 g of ai./ha) [%]	activity against weeds (weeds [3])	degree of damage, Sorghum (Sorghum [4]; 60 g of ai./ha) [%]	degree of damage, Maize (Maize [7]; 60 g of ai./ha) [%]	degree of damage, Digitaria (Digitaria; 60 g of ai./ha) [%]	degree of damage to the plants (% damage vs untreated control), Maize (Maize [8]) [%]	degree of damage, Lolium (Lolium [9]; 60 g of ai./ha) [%]	activity against weeds (weeds [10])	degree of damage, Amaranthus (Amaranthus; 60 g of ai./ha) [%]	degree of damage, Echinochloa (Echinochloa; 60 g of ai./ha) [%]	degree of damage to the plants (% damage vs untreated control), Soya beans (Soya beans) [%]	further results
CCOc1nn(C(=O)NS(=O)(=O)c2c(C)csc2C(=O)OC)c(=O)n1C1CC1 [Example 30]	85	100	100	very strong activity against weeds	95	15	90	0	60	very strong activity against weeds	100	70	–	degree of damage to the plants (% damage vs untreated control), Poa (Poa; 30 g of ai./ha): 95%; degree of damage to the plants (% damage vs untreated control), Ambrosia (Ambrosia; 30 g of ai./ha): 95%; degree of damage to the plants (% damage vs untreated control), Matricaria (Matricaria [2]; 30 g of ai./ha): 95%; degree of damage to the plants (% damage vs untreated control), Lolium (Lolium [5]; 30 g of ai./ha): 95%; degree of damage to the plants (% damage vs untreated control), Sorghum (Sorghum [6]; 30 g of ai./ha): 80%; degree of damage to the plants (% damage vs untreated control), Solanum (Solanum; 30 g of ai./ha): 95%
CCOc1nn(C(=O)NS(=O)(=O)c2c(C)cccc2C(=O)OC)c(=O)n1C [Example 163]	95	100	95	very strong activity against weeds	95	60	80	20	80	very strong activity against weeds	100	70	0	degree of damage to the plants (% damage vs untreated control), Poa (Poa; 4 g of ai./ha): 95%; degree of damage to the plants (% damage vs untreated control), Ambrosia (Ambrosia; 4 g of ai./ha): 80%; degree of damage to the plants (% damage vs untreated control), Lolium (Lolium [5]; 4 g of ai./ha): 80%; degree of damage to the plants (% damage vs untreated control), Sorghum (Sorghum [6]; 4 g of ai./ha): 60%; degree of damage to the plants (% damage vs untreated control), Solanum (Solanum; 4 g of ai./ha): 90%
COCc1nn(C(=O)NS(=O)(=O)c2c(C)csc2C(=O)OC)c(=O)n1C [Example 32]	70	80	90	very strong activity against weeds	95	70	70	20	70	very strong activity against weeds	95	100	20	degree of damage to the plants (% damage vs untreated control), Poa (Poa; 60 g of ai./ha): 95%; degree of damage to the plants (% damage vs untreated control), Ambrosia (Ambrosia; 60 g of ai./ha): 95%; degree of damage to the plants (% damage vs untreated control), Matricaria (Matricaria [2]; 60 g of ai./ha): 95%; degree of damage to the plants (% damage vs untreated control), Lolium (Lolium [5]; 60 g of ai./ha): 95%; degree of damage to the plants (% damage vs untreated control), Sorghum (Sorghum [6]; 60 g of ai./ha): 60%; degree of damage to the plants (% damage vs untreated control), Solanum (Solanum; 60 g of ai./ha): 95%
COCc1nn(C(=O)NS(=O)(=O)c2c(C)csc2C(=O)OC)c(=O)n1C1CC1 [Example 28]	80	90	100	very strong activity against weeds	95	10	90	0	60	very strong activity against weeds	100	80	–	degree of damage to the plants (% damage vs untreated control), Poa (Poa; 60 g of ai./ha): 95%; degree of damage to the plants (% damage vs untreated control), Ambrosia (Ambrosia; 60 g of ai./ha): 95%; degree of damage to the plants (% damage vs untreated control), Matricaria (Matricaria [2]; 60 g of ai./ha): 95%; degree of damage to the plants (% damage vs untreated control), Lolium (Lolium [5]; 60 g of ai./ha): 95%; degree of damage to the plants (% damage vs untreated control), Sorghum (Sorghum [6]; 60 g of ai./ha): 95%; degree of damage to the plants (% damage vs untreated control), Solanum (Solanum; 60 g of ai./ha): 95%
CCOc1nn(C(=O)NS(=O)(=O)c2c(C)cccc2C(=O)OC(C)C)c(=O)n1C [Example 44]	95	95	–	very strong activity against weeds	100	50	60	30	70	very strong activity against weeds	100	90	0	degree of damage to the plants (% damage vs untreated control), Poa (Poa; 8 g of ai./ha): 95%; degree of damage to the plants (% damage vs untreated control), Ambrosia (Ambrosia; 8 g of ai./ha): 95%; degree of damage to the plants (% damage vs untreated control), Matricaria (Matricaria [2]; 8 g of ai./ha): 95%; degree of damage to the plants (% damage vs untreated control), Lolium (Lolium [5]; 8 g of ai./ha): 95%; degree of damage to the plants (% damage vs untreated control), Sorghum (Sorghum [6]; 8 g of ai./ha): 95%; degree of damage to the plants (% damage vs untreated control), Solanum (Solanum; 8 g of ai./ha): 95%
COC(=O)c1scc(C)c1S(=O)(=O)NC(=O)n1nc(SC)n(C)c1=O [Example 6]	–	–	–	very strong activity against weeds	–	–	–	0	–	very strong activity against weeds	–	–	–	degree of damage, Gallium (Gallium; 400 g of ai./ha): 90%; degree of damage to the plants (% damage vs untreated control), Poa (Poa; 125 g of ai./ha): 95%; degree of damage, Matricaria (Matricaria [1]; 400 g of ai./ha): 100%; degree of damage to the plants (% damage vs untreated control), Ambrosia (Ambrosia; 125 g of ai./ha): 95%; degree of damage to the plants (% damage vs untreated control), Matricaria (Matricaria [2]; 125 g of ai./ha): 95%; degree of damage, Stellaria (Stellaria; 400 g of ai./ha): 100%; degree of damage, Sorghum (Sorghum [4]; 400 g of ai./ha): 80%; degree of damage to the plants (% damage vs untreated control), Lolium (Lolium [5]; 125 g of ai./ha): 95%; degree of damage to the plants (% damage vs untreated control), Sorghum (Sorghum [6]; 125 g of ai./ha): 95%; degree of damage, Maize (Maize [7]; 400 g of ai./ha): 20%; degree of damage, Digitaria (Digitaria; 400 g of ai./ha): 90%; degree of damage, Lolium (Lolium [9]; 400 g of ai./ha): 95%; degree of damage, Amaranthus (Amaranthus; 400 g of ai./ha): 100%; degree of damage, Echinochloa (Echinochloa; 400 g of ai./ha): 95%; degree of damage to the plants (% damage vs untreated control), Solanum (Solanum; 125 g of ai./ha): 95%
COC(=O)c1scc(C)c1S(=O)(=O)NC(=O)n1nc(OC)n(C)c1=O [Example 31]	–	–	–	very strong activity against weeds	–	–	–	10	–	very strong activity against weeds	–	–	–	degree of damage, Gallium (Gallium; 30 g of ai./ha): 80%; degree of damage to the plants (% damage vs untreated control), Poa (Poa; 15 g of ai./ha): 95%; degree of damage, Matricaria (Matricaria [1]; 30 g of ai./ha): 100%; degree of damage to the plants (% damage vs untreated control), Ambrosia (Ambrosia; 15 g of ai./ha): 95%; degree of damage to the plants (% damage vs untreated control), Matricaria (Matricaria [2]; 15 g of ai./ha): 95%; degree of damage, Stellaria (Stellaria; 30 g of ai./ha): 95%; degree of damage, Sorghum (Sorghum [4]; 30 g of ai./ha): 80%; degree of damage to the plants (% damage vs untreated control), Lolium (Lolium [5]; 15 g of ai./ha): 95%; degree of damage to the plants (% damage vs untreated control), Sorghum (Sorghum [6]; 15 g of ai./ha): 80%; degree of damage, Maize (Maize [7]; 30 g of ai./ha): 5%; degree of damage, Digitaria (Digitaria; 30 g of ai./ha): 95%; degree of damage, Lolium (Lolium [9]; 30 g of ai./ha): 90%; degree of damage, Amaranthus (Amaranthus; 30 g of ai./ha): 100%; degree of damage, Echinochloa (Echinochloa; 30 g of ai./ha): 95%; degree of damage to the plants (% damage vs untreated control), Solanum (Solanum; 15 g of ai./ha): 95%
